Data reported in publication PMC6832932, “Design and Selection of Novel C1s Inhibitors by In Silico and In Vitro Approaches” (Molecules, 2019).
Read-outs that look alike come from different tables or passages of the source.

Tests used:
C1s [1] = target: T1, C1s (Homo sapiens, UniProt P09871); conditions: ref [49]; read-out: IC50 C1s, reported value; cited from earlier work
T1 construct: Recombinant C1s and C1r fragments (CCP1-CCP2-SP, the γB catalytic region); made in house
T1 sequence (P09871 438-688 limits assumed): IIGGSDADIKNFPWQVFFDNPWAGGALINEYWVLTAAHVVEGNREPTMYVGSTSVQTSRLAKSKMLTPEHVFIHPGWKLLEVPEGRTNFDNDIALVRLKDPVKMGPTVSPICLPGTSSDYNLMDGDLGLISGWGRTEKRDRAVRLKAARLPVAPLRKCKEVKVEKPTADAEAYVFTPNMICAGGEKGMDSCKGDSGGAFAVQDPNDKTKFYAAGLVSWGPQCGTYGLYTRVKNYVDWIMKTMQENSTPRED

C1s [2] = target: T1, C1s; experiment: C1s inhibition IC50 assay (thioester substrate Z-Lys-SBzl with DTNB, photometric); format: biochemical; conditions: validation with FUT175; read-out: IC50 C1s (assay validation)
From the text: Recombinant C1s and C1r fragments (CCP1-CCP2-SP, the γB catalytic region) containing the serine protease domain were expressed in E. Coli BL21(DE3)pLysS host strain (transformed with pET-17b vector) in form of inclusion bodies; proteins were isolated, renatured and purified as published earlier. Recombinant C1s, isolated in intact proenzyme form, was activated by limited proteolysis using the recombinant, autoactivated C1r fragment. Activated C1s and C1r were separated using Q Sepharose HP (Amersham Biosciences, Little Chalfont, UK) anion exchange chromatography.
40 µL enzyme + 10 µL inhibitor compounds were incubated (10 min, RT), and 50 µL substrate solution (1 mM final concentration) was added; incubated for 45 min and finally absorbance was read (405 nm) with a Perkin Elmer Wallac 1420 Victor2 microplate reader.

C1s [3] = conditions: ref [47]; cited from earlier work

IC50 (C1s [2])	SMILES	IC50 (C1s [1])	IC50 (C1s [3])
0.002 µM	N=C(N)c1ccc2cc(OC(=O)c3ccc(N=C(N)N)cc3)ccc2c1 [FUT175, nafamostat, reference compound]	0.32 µM	–
–	O=c1oc(-c2ccccc2I)nc2ccccc12 [CID296008, 2-(2′-iodophenyl)-3,1-benzoxazin-4-one]	–	1.25 µM
